The values that follow are results of earlier work, collected in PMC10096180, “Half-Sandwich Type Platinum-Group Metal Complexes of C-Glucosaminyl Azines: Synthesis and Antineoplastic and Antimicrobial Activities” (Molecules, 2023).

Structures are written as SMILES.

One series relates to Saos (sarcoma). On the set-up: method as in PMID 36793764, PMID 34638791, PMID 35054999. The following applies: Figure 1, complex Ia; cited from earlier work.
Series [1] relates to Gram-positive multiresistant bacteria (Staphylococcus aureus, Enterococcus species). On the set-up: method as in PMID 35494644, PMID 36793764. The following applies: Figure 1, Staphylococcus aureus; cited from earlier work.
The next series relates to ID8 (ovarian). On the set-up: method as in PMID 36793764, PMID 34638791, PMID 35054999. The following applies: Figure 1, complex Ia; cited from earlier work.
For series [2], the system named is Capan2 (pancreatic adenocarcinoma). More on the design: method as in PMID 36793764, PMID 34638791, PMID 35054999. Conditions: Figure 1, complex Ia; cited from earlier work.
The subject of a further series is A2780 (ovarian). Conditions: Figure 1, complex Ia; read-out: IC50 A2780 (ovarian, cisplatin resistant); cited from earlier work.

`Cc1ccc(C(C)C)cc1.F[P-](F)(F)(F)(F)F.O=C(OCC1OC(n2cc(-c3ccc4ccccc4n3)nn2)C(OC(=O)c2ccccc2)C(OC(=O)c2ccccc2)C1OC(=O)c1ccccc1)c1ccccc1.[Cl][Os+]` (centres unmarked) [Ia]: the IC50 in the series on Saos (sarcoma) is 1290 nM; in the series on ID8 (ovarian) it was 360 nM; in series [2] it was 1350 nM; in the series on A2780 (ovarian), 430 nM. In series [1], the “MIC on Gram-positive multiresistant bacteria” value was 5 to 20 µM.
